Source: PMC11050443, “Discovery of Strong 3-Nitro-2-Phenyl-2H-Chromene Analogues as Antitrypanosomal Agents and Inhibitors of Trypanosoma cruzi Glucokinase” (International Journal of Molecular Sciences, 2024)
Read-outs that look alike come from different tables or passages of the source.

Key:
T. cruzi = test system: T. cruzi; parameters: method as in PMID 26778112; details: cited from earlier work
[1] = biological target: T1, LmG6PDH (Leuconostoc mesenteroides glucose-6-phosphate dehydrogenase) (Leuconostoc mesenteroides, UniProt P11411); assay: Confirmatory assay on the LmG6PDH enzyme-coupled system; format: biochemical; details: N = 4
T1 construct: purchased Worthington Biochemical Corporation
T1 sequence (P11411 whole entry): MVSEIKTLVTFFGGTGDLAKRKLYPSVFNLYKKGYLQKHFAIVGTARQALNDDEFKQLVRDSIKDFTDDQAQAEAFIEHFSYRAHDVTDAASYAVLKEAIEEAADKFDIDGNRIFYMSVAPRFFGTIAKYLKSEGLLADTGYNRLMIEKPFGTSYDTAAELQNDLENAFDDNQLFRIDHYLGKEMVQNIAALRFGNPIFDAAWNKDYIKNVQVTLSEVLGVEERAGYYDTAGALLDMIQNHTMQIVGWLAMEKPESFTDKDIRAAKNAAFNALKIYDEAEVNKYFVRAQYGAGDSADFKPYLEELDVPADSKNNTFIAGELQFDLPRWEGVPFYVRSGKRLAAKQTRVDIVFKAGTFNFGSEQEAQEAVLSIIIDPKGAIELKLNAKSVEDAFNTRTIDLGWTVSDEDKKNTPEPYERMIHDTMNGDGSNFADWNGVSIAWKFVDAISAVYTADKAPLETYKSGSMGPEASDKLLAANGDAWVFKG
Method: Two criteria were examined in order to certify on-target confirmed hits: (a) the assessment of potential inhibition to the LmG6PDH enzyme-coupled system, and (b) the precision of the assay (per inhibitor), performed in quadruplicate (N = 4). Compounds were tested in quadruplicate in a black, round-bottom 96-well microplate in which wells were filled with a buffered solution (50 mM triethanolamine, 150 mM NaCl) amounting to a total volume of 206.5 μL that contained the following reagents at final assay concentrations: LmG6PDH (6.1 μg/mL), NADP^+ (0.54 mM), ATP (0.54 mM), MgCl2 (6.9 mM), DMSO (1.0% by vol.), D-glucose-6-phosphate (0.80 mM), and a 3-nitro-2-phenyl-2H-chromene analogue (20.0 μM). The analogue compounds were pre-incubated with the enzyme system a minimum of 10 min prior to the initiation of the assay. The enzymatic reactions were initiated and terminated similarly as described in the TcGlcK primary screen (vide supra). The production of NADPH was monitored using the VANTAstar-F multi-mode microplate reader set to fluorescent mode, λex = 340 nm and λem = 485 nm, over a 120-s timeframe.

[2] = biological target: T2, TcGlcK (Trypanosoma cruzi glucokinase) (Trypanosoma cruzi, UniProt Q4E4E1); assay: TcGlcK primary screening assay (LmG6PDH-coupled, Dixon plots); format: biochemical; details: Dixon plots; 0.4, 0.6, 0.8 mM D-glucose; N = 1 unless marked, N = 3 for compounds 1, 4, 9, 11
T2 construct: made in house; host or cells: Escherichia coli BL21(DE3)
T2 sequence (Q4E4E1 1-376): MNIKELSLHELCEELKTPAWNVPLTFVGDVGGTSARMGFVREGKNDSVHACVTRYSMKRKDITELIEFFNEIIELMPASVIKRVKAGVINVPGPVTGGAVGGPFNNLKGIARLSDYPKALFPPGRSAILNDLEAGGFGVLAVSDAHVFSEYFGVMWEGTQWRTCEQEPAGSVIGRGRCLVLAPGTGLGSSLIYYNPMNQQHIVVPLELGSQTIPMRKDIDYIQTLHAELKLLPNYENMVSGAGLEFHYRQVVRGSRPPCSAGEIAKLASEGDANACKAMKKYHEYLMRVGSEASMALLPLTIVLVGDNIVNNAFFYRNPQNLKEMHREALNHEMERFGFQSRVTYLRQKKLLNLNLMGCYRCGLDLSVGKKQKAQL
Method: A primary screening assay was carried out for TcGlcK with the 3-nitro-2-phenyl-2H-chromene analogues. The data was subsequently processed for respective Ki values in order to assess enzyme inhibition. […] The primary screening assay was performed with the substrate D-glucose in various concentrations of 0.4 mM, 0.6 mM, and 0.8 mM to produce Dixon plots with different slopes. Each of the 3-nitro-2-phenyl-2H-chromene analogues were originally prepared at a working concentration of 1.0 mM and were dissolved in 100% DMSO. The final assay concentrations of the analogue compounds (inhibitors) ranged from 0.0–10.0 μM. The analogue compounds were pre-incubated with the enzyme system a minimum of 10 min prior to the initiation of the assay. The enzymatic reaction was carried out at room temperature (22 °C; temperature optimum) using ATP to initiate the reaction, and termination was performed after 120 s (time optimum) by stopping the reaction with the addition of an EDTA (pH 8.0) solution, to a final concentration of 100 mM. TcGlcK enzyme activity was analyzed for the production of NADPH. Each completed reaction mixture was added into a black, round-bottom microplate and scanned by a VANTAstar-F multi-mode microplate reader (BMG LABTECH, Inc.; Cary, NC, USA). The instrument was set to fluorescence mode and the wavelengths (λex = 340 nm; λem = 485 nm) were set to observe the relative fluorescence units of NADPH [40]. The enzyme-inhibition kinetics Ki value determination and the mode of inhibition was determined using the Cornish–Bowden Dixon Plot analysis method.

NIH-3T3 fibroblasts = assay: In vitro cytotoxicity assay of mammalian NIH-3T3 fibroblasts (Alamar blue); format: cell-based; details: NIH-3T3 fibroblast growth inhibition, host cell toxicity; 4 days; N = 3
Method: The in vitro cell culturing of mammalian NIH-3T3 fibroblasts following treatment with inhibitors to assess for cytotoxicity has previously been described. DMEM lacking phenol red and supplemented with 2% FBS and 1% PSG was warmed up. NIH-3T3 cells were trypsinized, as described in the cell culture protocol. When cells became detached, they were harvested in DMEM lacking phenol red and including 2% FBS and 1% PSG. The cells were centrifuged at 1000 rpm for 5 min, the medium was discarded, and the cells were resuspended in fresh DMEM lacking phenol red and including 2% FBS and 1% PSG. The cells were centrifuged at 1000 rpm for 5 min, resuspended in the medium, counted, and diluted to 500,000 cells/mL. Dilution was accomplished by transferring the stock number of cells into a sterile basin and 100 μL of cells was added to each well of a transparent, sterile, flat-bottom, 96-well microplate (50,000 cells/well) using a multichannel pipette. The plate was placed into the incubator for 3 h to allow cells to attach. The 3-nitro-2-phenyl-2H-chromene compounds were thawed from −80 °C to room temperature. The compounds were prepared as 10.0 mM stock solutions in 100% DMSO. A volume of 2.0 μL of a given compound plus a volume of 98.0 μL of fresh media were both added to a well in the first row of the 96-well microplate; this was performed for each compound to be tested. The solutions were mixed with a micropipette, followed by the transfer of 100 μL to the next row and repeated. The compound solutions ranged from 0.0139–30.3 μM and this was accomplished by serial dilution using a 3-fold dilution. After incubation for 4 days, 10.0 μL of Alamar blue was added to each well. Absorbance readings were measured using a Victor Nivo multimode microplate reader (PerkinElmer, Inc.; Shelton, CT, USA) at λ = 590 nm. All measurements were performed in triplicate and TC50 determinations for percent growth inhibition were carried out using GraphPad Prism 10.0. The final volume per well of cells and a given compound was 100 μL and this volume became 110 μL after the addition of Alamar blue. The detergent SDS was used as a positive control and its final solution concentration was 0.1%. Three controls were carried out, as follows: (a) NIH-3T3 cells alone, (b) perished NIH-3T3 cells (NIH-3T3 cells in the presence of 0.1% SDS), and (c) the medium alone.

[3] = test system: T. brucei brucei (427 strain) bloodstream form; assay: In vitro T. brucei biological assay (Alamar blue); format: cell-based, Trypanosoma brucei brucei; details: Trypanosoma brucei, 48 h, T. brucei brucei 427 strain bloodstream form growth inhibition; N = 3
Method: The in vitro cell culture preparation of T. brucei brucei (427 strain) trypomastigote bloodstream form followed by treatment with inhibitors has recently been described by Ajayi and colleagues. The 3-nitro-2-phenyl-2H-chromene compounds (inhibitors) that were prepared as 10.0 mM stock solutions in 100% DMSO were thawed from −80 °C to room temperature. HMI-9 medium [Iscove’s modification of DMEM supplemented with 10% FBS, 10% serum plus (SAFC), 0.05 mM bathocuproinesulfonate, 1.5 mM L-cysteine, 1.0 mM hypoxanthine, 0.2 mM β-mercaptoethanol, 0.16 mM thymidine, and 1.0 mM pyruvate] was prepared. In a sterile, round-bottom, 96-well microplate, 100 μL of HMI-9 medium was added to each well. A volume of 2.0 μL of a given compound plus a volume of 98.0 μL of fresh media were both added to a well in the first row of the 96-well microplate; this was performed for each compound to be tested. Solutions were mixed with a micropipette followed by transfer of 100 μL to the next row and repeated. The compound solutions ranged from 0.0781–10.0 μM and this was accomplished by serial dilution using a 2-fold dilution. T. brucei parasites were centrifuged for 10 min at 900× g (without centrifuge breaks). The media was carefully discarded by aspiration and the parasites were resuspended in warm media. Parasites were counted in a Newbauer chamber. Afterwards, the parasites were diluted to 50,000 cells/mL (5000 cells/well) and 100 μL was added to each well of the 96-well microplate using a multichannel pipette. After 48 h, 20.0 μL of Alamar blue was added to each well and the plate was placed into an incubator for 4 h at 37 °C. Fluorescence readings were measured using a Victor Nivo multimode microplate reader (PerkinElmer, Inc.; Shelton, CT, USA) at λex = 530 nm and λem = 590 nm. All measurements were performed in triplicate and IC50 determinations for percent growth inhibition were carried out using GraphPad Prism 10.0. The detergent SDS was used as a positive control and its final solution concentration was 0.5%. Three control experiments were performed, as follows: (a) parasites alone, (b) parasites and 0.5% SDS, and (c) the medium alone.

TcGlcK = biological target: TcGlcK; parameters: method as in PMID 26778112; details: competitive inhibitor, previous study; cited from earlier work

In the case of O=C(Cn1ccnc1[N+](=O)[O-])NCc1ccccc1 [Benznidazole, benznidazole], the IC50 (T. cruzi; benznidazole control, previous work, read-out: T. cruzi IC50) is given as 1120 ± 95 nM.

In the case of O=[N+]([O-])C1=Cc2ccccc2OC1c1ccccc1Cl (centres unmarked) [Compound 12, 2-(2-Chlorophenyl)-3-nitro-2H -chromene], the “LmG6PDH inhibitory effect (in words)” value ([1]; 20 µM compound) is reported as “did not observe any significant LmG6PDH inhibitory effects”, the inhibition at 20 µM ([1]; percentage of inhibition at 20 µM compound in comparison to controls, read-out: LmG6PDH Inh20) is reported as 8.6 ± 0.1% and the Ki [2] is reported as 14000 nM. For the same compound, the “NIH-3T3 TC50” value (NIH-3T3 fibroblasts) was 10900 ± 1550 nM and the IC50 [3] was 1670 ± 60 nM.

In the case of O=C(N[C@H]1[C@@H](O)[C@H](O)C(CO)O[C@@H]1O)OCc1ccccc1 (some centres unmarked) [carboxybenzyl glucosamine], the Ki (TcGlcK) is listed as 710 nM and the IC50 (T. cruzi; previous study, read-out: in vitro percent-growth-inhibition IC50 in T. cruzi culture) is listed as 48700 nM.
